Measurements: the NIST ThermoML archive (doi:10.1021/je900244c)
Where “and” joins values, the source holds several entries; their conditions need not be identical. Equal entries are not always repeated.

Experiment: xn = mol fraction of the nth substance listed
Conditions: Gas, Buoyancy - hydrostatic balance with magnetic suspension - two sinkers

CC(C)C [2-methylpropane] + CCC
Conditions | mass density
303.15 K, 440.3 kPa, x2 = 0.503 | 9.824 kg/m3
303.15 K, 440.7 kPa, x2 = 0.503 | 9.834 kg/m3
303.15 K, 449.9 kPa, x2 = 0.503 | 10.061 kg/m3
303.15 K, 450 kPa, x2 = 0.503 | 10.069 kg/m3
303.15 K, 460 kPa, x2 = 0.503 | 10.317 kg/m3
303.15 K, 460.4 kPa, x2 = 0.503 | 10.325 kg/m3
303.15 K, 470.2 kPa, x2 = 0.503 | 10.57 kg/m3
303.15 K, 470.5 kPa, x2 = 0.503 | 10.581 kg/m3
303.15 K, 480 kPa, x2 = 0.503 | 10.823 kg/m3
303.15 K, 480.3 kPa, x2 = 0.503 | 10.83 kg/m3
303.15 K, 489.7 kPa, x2 = 0.503 | 11.072 kg/m3
303.15 K, 490.4 kPa, x2 = 0.503 | 11.087 kg/m3
303.15 K, 500.3 kPa, x2 = 0.503 | 11.344 kg/m3
303.15 K, 500.4 kPa, x2 = 0.503 | 11.344 kg/m3
303.15 K, 510.3 kPa, x2 = 0.503 | 11.608 kg/m3
303.15 K, 510.5 kPa, x2 = 0.503 | 11.6 kg/m3
303.15 K, 520.4 kPa, x2 = 0.503 | 11.861 kg/m3 and 11.864 kg/m3
303.15 K, 530.4 kPa, x2 = 0.503 | 12.121 kg/m3
303.15 K, 530.7 kPa, x2 = 0.503 | 12.129 kg/m3
303.15 K, 540.1 kPa, x2 = 0.503 | 12.37 kg/m3
303.15 K, 540.2 kPa, x2 = 0.503 | 12.378 kg/m3
303.15 K, 550.1 kPa, x2 = 0.503 | 12.642 kg/m3
303.15 K, 550.3 kPa, x2 = 0.503 | 12.642 kg/m3
303.15 K, 560.3 kPa, x2 = 0.503 | 12.914 kg/m3
303.15 K, 564.6 kPa, x2 = 0.503 | 13.019 kg/m3
303.15 K, 570.1 kPa, x2 = 0.503 | 13.17 kg/m3
303.15 K, 570.4 kPa, x2 = 0.503 | 13.178 kg/m3
303.15 K, 575.1 kPa, x2 = 0.503 | 13.306 kg/m3
303.15 K, 580.1 kPa, x2 = 0.503 | 13.434 kg/m3
303.15 K, 580.7 kPa, x2 = 0.503 | 13.453 kg/m3
303.15 K, 584.3 kPa, x2 = 0.503 | 13.548 kg/m3
303.15 K, 599.9 kPa, x2 = 0.799 | 12.55 kg/m3
303.15 K, 600.1 kPa, x2 = 0.799 | 12.557 kg/m3
303.15 K, 609.7 kPa, x2 = 0.799 | 12.784 kg/m3
303.15 K, 610.2 kPa, x2 = 0.799 | 12.802 kg/m3
303.15 K, 620.2 kPa, x2 = 0.799 | 13.04 kg/m3
303.15 K, 630.2 kPa, x2 = 0.799 | 13.289 kg/m3
303.15 K, 639.7 kPa, x2 = 0.799 | 13.516 kg/m3
303.15 K, 649.7 kPa, x2 = 0.799 | 13.757 kg/m3
303.15 K, 659.8 kPa, x2 = 0.799 | 14.006 kg/m3
303.15 K, 680.1 kPa, x2 = 0.799 | 14.516 kg/m3
303.15 K, 700 kPa, x2 = 0.799 | 15.01 kg/m3
303.15 K, 720 kPa, x2 = 0.799 | 15.515 kg/m3
303.15 K, 739.9 kPa, x2 = 0.799 | 16.028 kg/m3
303.15 K, 760.5 kPa, x2 = 0.799 | 16.557 kg/m3
303.15 K, 770.4 kPa, x2 = 0.799 | 16.821 kg/m3
303.15 K, 779.5 kPa, x2 = 0.799 | 17.055 kg/m3
303.15 K, 780.1 kPa, x2 = 0.799 | 17.073 kg/m3
303.15 K, 789.8 kPa, x2 = 0.799 | 17.319 kg/m3
303.15 K, 790.1 kPa, x2 = 0.799 | 17.342 kg/m3
303.15 K, 799.6 kPa, x2 = 0.799 | 17.59 kg/m3
323.15 K, 590.1 kPa, x2 = 0.244 | 13.582 kg/m3
323.15 K, 600.1 kPa, x2 = 0.244 | 13.847 kg/m3
323.15 K, 600.6 kPa, x2 = 0.249 | 13.833 kg/m3
323.15 K, 600.7 kPa, x2 = 0.249 | 13.848 kg/m3
323.15 K, 609.5 kPa, x2 = 0.244 | 14.1 kg/m3
323.15 K, 610.4 kPa, x2 = 0.249 | 14.09 kg/m3
323.15 K, 620.1 kPa, x2 = 0.249 | 14.354 kg/m3
323.15 K, 620.5 kPa, x2 = 0.244 | 14.391 kg/m3
323.15 K, 620.7 kPa, x2 = 0.249 | 14.369 kg/m3
323.15 K, 629.7 kPa, x2 = 0.244 | 14.643 kg/m3
323.15 K, 630.3 kPa, x2 = 0.249 | 14.633 kg/m3
323.15 K, 630.5 kPa, x2 = 0.244 | 14.658 kg/m3
323.15 K, 630.5 kPa, x2 = 0.249 | 14.64 kg/m3
323.15 K, 640.1 kPa, x2 = 0.249 | 14.889 kg/m3
323.15 K, 640.7 kPa, x2 = 0.244 | 14.937 kg/m3
323.15 K, 640.9 kPa, x2 = 0.249 | 14.923 kg/m3
323.15 K, 650.1 kPa, x2 = 0.249 | 15.168 kg/m3
323.15 K, 650.3 kPa, x2 = 0.244 | 15.201 kg/m3
323.15 K, 651.3 kPa, x2 = 0.244 | 15.223 kg/m3
323.15 K, 660 kPa, x2 = 0.249 | 15.436 kg/m3
323.15 K, 660.1 kPa, x2 = 0.249 | 15.447 kg/m3
